The record followed here is ChEMBL document CHEMBL2074103, “Up-regulation of the multidrug resistance genes, Mrp1 and Mdr1b, and down-regulation of the organic anion transporter, Mrp2, and the bile salt transporter, Spgp, in endotoxemic rat liver” (Hepatology, 1998).

Assay type in all cases: functional, organism-based
Data set [1] concerns the target Multidrug resistance protein 1a (Rattus norvegicus) (UniProt Q6PSM0). Briefly: (§1) TP_TRANSPORTER: Western in vivo, liver of Wistar rat.
The target in data set [2] is T1, Bile salt export pump (Rattus norvegicus, UniProt O70127).
T1 sequence (O70127 whole entry): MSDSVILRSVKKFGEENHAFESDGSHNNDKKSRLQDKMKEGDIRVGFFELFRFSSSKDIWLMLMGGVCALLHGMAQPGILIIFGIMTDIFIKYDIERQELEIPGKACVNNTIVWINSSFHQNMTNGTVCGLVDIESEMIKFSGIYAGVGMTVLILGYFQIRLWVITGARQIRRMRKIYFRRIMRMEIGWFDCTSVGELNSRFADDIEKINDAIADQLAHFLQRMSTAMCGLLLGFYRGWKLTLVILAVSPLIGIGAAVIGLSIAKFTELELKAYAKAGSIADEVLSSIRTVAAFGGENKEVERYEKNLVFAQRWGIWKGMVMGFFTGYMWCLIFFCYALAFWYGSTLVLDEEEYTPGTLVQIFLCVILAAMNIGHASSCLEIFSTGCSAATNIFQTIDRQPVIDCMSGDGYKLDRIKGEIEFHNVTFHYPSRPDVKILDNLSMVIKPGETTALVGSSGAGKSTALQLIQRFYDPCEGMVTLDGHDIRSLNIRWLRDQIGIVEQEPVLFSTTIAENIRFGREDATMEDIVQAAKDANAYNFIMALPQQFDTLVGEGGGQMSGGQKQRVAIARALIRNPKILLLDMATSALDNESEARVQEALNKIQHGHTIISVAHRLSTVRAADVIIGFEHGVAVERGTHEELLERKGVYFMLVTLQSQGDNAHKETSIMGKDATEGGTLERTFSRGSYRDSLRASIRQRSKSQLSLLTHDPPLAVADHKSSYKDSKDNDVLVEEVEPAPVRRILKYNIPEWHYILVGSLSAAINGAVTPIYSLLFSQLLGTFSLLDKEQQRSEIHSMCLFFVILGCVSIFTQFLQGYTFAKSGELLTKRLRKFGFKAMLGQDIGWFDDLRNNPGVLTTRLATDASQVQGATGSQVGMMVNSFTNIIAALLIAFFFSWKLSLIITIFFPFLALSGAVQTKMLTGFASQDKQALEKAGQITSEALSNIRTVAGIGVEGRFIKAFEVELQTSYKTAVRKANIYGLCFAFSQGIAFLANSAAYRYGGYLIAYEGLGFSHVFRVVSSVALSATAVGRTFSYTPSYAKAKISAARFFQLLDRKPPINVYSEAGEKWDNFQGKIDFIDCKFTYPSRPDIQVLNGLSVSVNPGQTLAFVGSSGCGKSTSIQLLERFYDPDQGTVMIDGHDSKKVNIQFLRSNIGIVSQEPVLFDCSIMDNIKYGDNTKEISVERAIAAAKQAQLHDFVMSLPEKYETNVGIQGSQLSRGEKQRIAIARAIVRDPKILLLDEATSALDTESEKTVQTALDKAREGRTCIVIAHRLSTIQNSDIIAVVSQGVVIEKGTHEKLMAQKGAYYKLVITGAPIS
Briefly: (§2) TP_TRANSPORTER: RT-PCR in vivo, liver of Wistar rat.

Data set [3] addresses ATP-dependent translocase ABCB1 (Rattus norvegicus, UniProt P43245). Described as §2.
Data set [4] deals with T2, Multidrug resistance-associated protein 1 (Rattus norvegicus, UniProt Q8CG09). The description is as §2.
T2 sequence (Q8CG09 whole entry): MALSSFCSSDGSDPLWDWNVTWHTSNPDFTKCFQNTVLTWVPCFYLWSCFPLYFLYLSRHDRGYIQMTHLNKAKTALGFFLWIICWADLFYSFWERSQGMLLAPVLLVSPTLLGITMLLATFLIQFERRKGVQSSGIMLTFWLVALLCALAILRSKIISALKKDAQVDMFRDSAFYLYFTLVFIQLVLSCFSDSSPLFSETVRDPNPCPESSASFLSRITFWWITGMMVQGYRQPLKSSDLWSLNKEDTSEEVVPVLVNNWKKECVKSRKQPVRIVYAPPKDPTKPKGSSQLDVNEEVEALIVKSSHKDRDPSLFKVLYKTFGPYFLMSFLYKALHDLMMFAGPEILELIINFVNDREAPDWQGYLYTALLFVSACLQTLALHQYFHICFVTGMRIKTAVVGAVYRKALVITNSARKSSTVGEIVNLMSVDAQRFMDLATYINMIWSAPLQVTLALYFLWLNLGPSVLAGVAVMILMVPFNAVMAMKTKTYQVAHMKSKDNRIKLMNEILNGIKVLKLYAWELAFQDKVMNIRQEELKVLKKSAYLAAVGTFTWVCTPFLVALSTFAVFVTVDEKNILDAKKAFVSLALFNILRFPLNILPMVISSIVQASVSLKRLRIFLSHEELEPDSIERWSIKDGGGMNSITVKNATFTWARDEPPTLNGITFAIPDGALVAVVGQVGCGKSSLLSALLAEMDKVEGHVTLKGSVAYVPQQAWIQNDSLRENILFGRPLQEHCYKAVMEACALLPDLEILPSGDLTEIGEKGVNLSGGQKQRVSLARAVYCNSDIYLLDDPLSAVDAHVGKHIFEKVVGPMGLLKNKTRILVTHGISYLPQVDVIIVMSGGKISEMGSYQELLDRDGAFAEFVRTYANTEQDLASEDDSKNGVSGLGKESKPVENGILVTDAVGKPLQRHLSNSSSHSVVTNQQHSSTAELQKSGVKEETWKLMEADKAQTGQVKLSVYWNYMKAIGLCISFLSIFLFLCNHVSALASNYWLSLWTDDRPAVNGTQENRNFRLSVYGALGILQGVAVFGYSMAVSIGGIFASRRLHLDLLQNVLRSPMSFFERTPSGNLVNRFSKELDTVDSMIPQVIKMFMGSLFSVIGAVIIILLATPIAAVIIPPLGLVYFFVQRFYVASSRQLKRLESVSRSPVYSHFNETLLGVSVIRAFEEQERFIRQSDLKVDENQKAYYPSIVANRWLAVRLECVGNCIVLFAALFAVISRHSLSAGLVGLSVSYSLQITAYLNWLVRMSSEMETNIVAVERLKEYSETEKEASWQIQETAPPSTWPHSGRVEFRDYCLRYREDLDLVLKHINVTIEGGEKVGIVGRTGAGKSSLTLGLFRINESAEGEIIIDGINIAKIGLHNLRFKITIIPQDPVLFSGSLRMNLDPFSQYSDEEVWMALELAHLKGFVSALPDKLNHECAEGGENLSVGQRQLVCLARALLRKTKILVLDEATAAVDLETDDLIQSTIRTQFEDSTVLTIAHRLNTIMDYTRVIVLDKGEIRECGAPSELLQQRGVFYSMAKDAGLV
In data set [5] the target is T3, ATP-binding cassette sub-family C member 2 (Rattus norvegicus, UniProt Q63120). Described as §2.
T3 sequence (Q63120 whole entry): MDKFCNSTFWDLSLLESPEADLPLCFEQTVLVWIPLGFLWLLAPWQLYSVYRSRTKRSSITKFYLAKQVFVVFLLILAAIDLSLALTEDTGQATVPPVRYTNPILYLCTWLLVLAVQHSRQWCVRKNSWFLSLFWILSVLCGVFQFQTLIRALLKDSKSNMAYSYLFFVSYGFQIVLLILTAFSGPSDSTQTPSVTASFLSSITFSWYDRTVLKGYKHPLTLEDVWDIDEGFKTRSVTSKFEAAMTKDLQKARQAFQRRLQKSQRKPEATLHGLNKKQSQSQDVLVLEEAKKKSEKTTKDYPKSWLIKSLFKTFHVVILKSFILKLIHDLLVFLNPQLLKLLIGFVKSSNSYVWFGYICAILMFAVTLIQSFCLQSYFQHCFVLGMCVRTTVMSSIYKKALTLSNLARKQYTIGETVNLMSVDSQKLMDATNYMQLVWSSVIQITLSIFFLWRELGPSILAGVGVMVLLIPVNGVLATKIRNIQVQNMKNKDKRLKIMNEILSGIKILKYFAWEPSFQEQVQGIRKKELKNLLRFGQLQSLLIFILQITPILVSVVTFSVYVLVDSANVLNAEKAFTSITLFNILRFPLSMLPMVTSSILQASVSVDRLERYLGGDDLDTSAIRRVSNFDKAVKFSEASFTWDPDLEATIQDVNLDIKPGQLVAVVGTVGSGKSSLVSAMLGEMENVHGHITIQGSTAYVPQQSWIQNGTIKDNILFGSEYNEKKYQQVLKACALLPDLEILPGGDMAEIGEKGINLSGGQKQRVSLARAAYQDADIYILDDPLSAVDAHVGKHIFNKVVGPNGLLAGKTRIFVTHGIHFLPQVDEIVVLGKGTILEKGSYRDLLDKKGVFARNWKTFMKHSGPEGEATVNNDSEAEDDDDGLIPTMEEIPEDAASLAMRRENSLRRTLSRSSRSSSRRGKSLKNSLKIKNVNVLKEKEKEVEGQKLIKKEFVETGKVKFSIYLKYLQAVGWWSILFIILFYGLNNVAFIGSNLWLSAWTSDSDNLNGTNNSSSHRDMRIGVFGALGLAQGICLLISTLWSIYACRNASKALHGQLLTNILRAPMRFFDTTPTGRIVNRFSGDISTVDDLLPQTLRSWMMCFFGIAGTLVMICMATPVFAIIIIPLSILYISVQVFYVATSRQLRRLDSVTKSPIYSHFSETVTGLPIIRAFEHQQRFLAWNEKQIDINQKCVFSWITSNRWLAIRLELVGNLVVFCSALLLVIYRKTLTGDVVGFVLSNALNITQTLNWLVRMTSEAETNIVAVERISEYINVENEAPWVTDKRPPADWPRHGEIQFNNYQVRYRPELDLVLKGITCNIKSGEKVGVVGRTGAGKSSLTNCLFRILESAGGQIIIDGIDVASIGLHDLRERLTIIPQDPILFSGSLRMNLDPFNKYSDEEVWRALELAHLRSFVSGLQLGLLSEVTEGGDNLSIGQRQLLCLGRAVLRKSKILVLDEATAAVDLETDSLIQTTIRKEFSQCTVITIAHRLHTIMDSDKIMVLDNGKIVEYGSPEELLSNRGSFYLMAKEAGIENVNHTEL
Data set [6] addresses T1, Bile salt export pump. The description is as §1.
In data set [7] the target is T2, Multidrug resistance-associated protein 1. The data set is described as §1.
Data set [8] deals with T3, ATP-binding cassette sub-family C member 2. The data set is described as §1.

ATP-dependent translocase ABCB1, sequence (P43245 whole entry): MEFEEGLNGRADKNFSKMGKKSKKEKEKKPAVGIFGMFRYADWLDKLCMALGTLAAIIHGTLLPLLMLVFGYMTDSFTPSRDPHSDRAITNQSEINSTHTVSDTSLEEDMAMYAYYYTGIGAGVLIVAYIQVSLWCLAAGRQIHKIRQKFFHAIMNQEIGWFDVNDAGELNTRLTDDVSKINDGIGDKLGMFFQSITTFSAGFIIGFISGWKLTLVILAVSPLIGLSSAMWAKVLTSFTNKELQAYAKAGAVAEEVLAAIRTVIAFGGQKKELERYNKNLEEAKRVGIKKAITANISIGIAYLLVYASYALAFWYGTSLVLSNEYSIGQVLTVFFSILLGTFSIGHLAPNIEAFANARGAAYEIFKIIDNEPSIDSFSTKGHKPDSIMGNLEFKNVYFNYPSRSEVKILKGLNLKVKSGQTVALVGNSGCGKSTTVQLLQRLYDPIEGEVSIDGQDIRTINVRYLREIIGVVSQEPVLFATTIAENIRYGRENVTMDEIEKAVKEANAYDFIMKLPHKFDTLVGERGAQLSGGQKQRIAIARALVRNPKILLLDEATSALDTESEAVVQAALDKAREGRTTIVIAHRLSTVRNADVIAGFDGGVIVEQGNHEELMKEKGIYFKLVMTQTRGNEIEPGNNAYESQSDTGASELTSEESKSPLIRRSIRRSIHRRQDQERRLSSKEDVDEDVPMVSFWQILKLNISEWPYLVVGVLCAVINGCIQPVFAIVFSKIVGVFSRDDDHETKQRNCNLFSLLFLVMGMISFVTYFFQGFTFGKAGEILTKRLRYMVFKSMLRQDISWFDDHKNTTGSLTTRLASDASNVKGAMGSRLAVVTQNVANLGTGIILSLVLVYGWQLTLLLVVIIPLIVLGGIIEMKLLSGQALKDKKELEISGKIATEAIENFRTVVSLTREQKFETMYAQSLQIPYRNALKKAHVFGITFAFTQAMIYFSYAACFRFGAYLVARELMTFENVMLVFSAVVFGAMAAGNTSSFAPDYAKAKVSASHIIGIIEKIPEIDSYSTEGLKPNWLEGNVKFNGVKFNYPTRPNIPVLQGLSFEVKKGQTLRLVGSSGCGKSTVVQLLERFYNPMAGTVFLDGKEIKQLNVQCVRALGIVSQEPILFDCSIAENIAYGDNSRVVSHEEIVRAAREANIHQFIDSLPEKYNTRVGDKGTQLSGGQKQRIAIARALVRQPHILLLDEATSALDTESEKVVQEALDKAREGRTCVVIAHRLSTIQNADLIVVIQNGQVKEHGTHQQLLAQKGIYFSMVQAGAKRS

Turning to `CCCCCCCCCCCCCC(=O)OC(CCCCCCCCCCC)CC(=O)OC1C(NC(=O)CC(CCCCCCCCCCC)OC(=O)CCCCCCCCCCC)C(OC2CC(OC(=O)CC(O)CCCCCCCCCCC)C(NC(=O)CC(O)CCCCCCCCCCC)C(O)O2)OC(CO)C1OP(=O)(O)O` (stereo not drawn), the Activity entry in data set [1] is “inducer [Decrease]”; on Bile salt export pump [2], “inducer [Decrease]”; in data set [3] it was “inducer [+]”; in data set [4], “inducer [+]”; in data set [5], “inducer [Decrease]”; at Bile salt export pump [6] it was “inducer [Decrease]”. Also, the figures for the Activity entry in data set [7] and in data set [8] were “inducer [+]” and “inducer [Decrease]”, respectively.
